Data as given in ChEMBL document CHEMBL3603746, “Discovery of New H2S Releasing Phosphordithioates and 2,3-Dihydro-2-phenyl-2-sulfanylenebenzo[d][1,3,2]oxazaphospholes with Improved Antiproliferative Activity” (J Med Chem, 2015).

Key:
[1] = Induction of H2S release in 10% PBS:MeCN solution at 100 uM incubated at 37 degC in dark condition measured at 72 hrs by 2, 6-dansyl azide probed-based fluorescence assay; format: physicochemical; conditions: buffer
[2] = Toxicity in human WI38 cells assessed as inhibition of cell proliferation after 4 days by crystal violet assay
[3] = test system: MCF7; test: Cytotoxicity against human MCF7 cells assessed as inhibition of cell proliferation after 4 days by crystal violet assay; format: functional, cell-based; conditions: MCF7, 96 h
[4] = Therapeutic index, ratio of IC50 for human WI38 cells to IC50 for human SKOV3 cells; conditions: WI38 cells and SKOV3 cells
[5] = Induction of H2S release in 10% PBS:MeCN solution at 1 mM incubated at 22 degC in dark condition measured at 72 hrs by 2, 6-dansyl azide probed-based fluorescence assay; format: physicochemical; conditions: buffer, 1000 µM
[6] = Therapeutic index, ratio of IC50 for human WI38 cells to IC50 for human MCF7 cells; conditions: WI38 cells and MCF7 cells
[7] = test system: SK-OV-3; test: Cytotoxicity against human SKOV3 cells assessed as inhibition of cell proliferation after 4 days by crystal violet assay; format: functional, cell-based; conditions: SK-OV-3, 96 h
[8] = test system: MDA-MB-231; test: cells; format: functional, cell-based; conditions: Homo sapiens, MDA-MB-231, 72 h
Description: Cytotoxicity against human MDA-MB-231 cells assessed as inhibition of cell proliferation after 72 hrs by MTS assay

[9] = Induction of H2S release in 10% PBS:MeCN solution at 5 mM incubated at 22 degC in dark condition measured at 96 hrs by 2, 6-dansyl azide probed-based fluorescence assay relative to GYY4137; format: physicochemical; conditions: buffer, 5000 µM
[10] = Induction of H2S release in 10% PBS:MeCN solution at 5 mM incubated at 22 degC in dark condition measured at 96 hrs by 2, 6-dansyl azide probed-based fluorescence assay relative to control; conditions: buffer, 5000 µM
[11] = test system: PC-3; test: cells; format: functional, cell-based; conditions: Homo sapiens, PC-3, 72 h
Description: Cytotoxicity against human PC3 cells assessed as inhibition of cell proliferation after 72 hrs by MTT assay

[12] = Induction of H2S release in 10% PBS:MeCN solution assessed as ratio of H2S level at 37 degC to H2S level at 22 degC at 5 mM incubated in dark condition measured at 96 hrs by 2, 6-dansyl azide probed-based fluorescence assay; conditions: buffer, 5000 µM
[13] = Induction of H2S release in 10% PBS:MeCN solution at 5 mM incubated at 37 degC in dark condition measured at 96 hrs by 2, 6-dansyl azide probed-based fluorescence assay relative to GYY4137; format: physicochemical; conditions: buffer, 5000 µM
[14] = Induction of H2S release in aqueous acetonitrile solution at 400 uM measured over 4 days by probe 21-based fluorescence assay; conditions: buffer, 96 h
[15] = Therapeutic index, ratio of IC50 for human WI38 cells to IC50 for human MBA-MD-231 cells; conditions: WI38 cells and MBA-MD-231 cells
[16] = Effective permeability of the compound at 500 uM after 16 hrs by PAMPA
[17] = Therapeutic index, ratio of IC50 for human WI38 cells to IC50 for human PC3 cells; conditions: WI38 cells and PC3 cells
[18] = test system: MCF7; test: cells; format: functional, cell-based; conditions: Homo sapiens, MCF7, 72 h
Description: Cytotoxicity against human MCF7 cells assessed as inhibition of cell proliferation after 72 hrs by MTT assay

[19] = Induction of H2S release in aqueous acetonitrile solution at 200 uM measured over 4 days by probe 21-based fluorescence assay; conditions: buffer, 96 h
[20] = test system: Hepatocyte; test: Toxicity in transforming growth factor alpha transgenic mouse hepatocytes at 100 uM after 24 hrs by CellTiter-Glo cell viability assay; format: cell-based
[21] = Induction of H2S release in 10% PBS:MeCN solution at 5 mM incubated at 37 degC in dark condition measured at 96 hrs by 1 mM 2, 6-dansyl azide probed-based fluorescence assay relative to control; conditions: buffer, 5000 µM
[22] = Effective permeability of the compound at 500 uM after 6 hrs by PAMPA; conditions: for Papp at 6 h, 500 µM: PAMPA
[23] = Induction of H2S release in 10% PBS:MeCN solution at 5 mM incubated at 37 degC in dark condition measured at 96 hrs by 0.2 mM 2, 6-dansyl azide probed-based fluorescence assay relative to control; format: physicochemical; conditions: buffer, 5000 µM
[24] = Induction of H2S release in 10% PBS:MeCN solution at 0.5 mM incubated at 37 degC in dark condition measured at 48 hrs by 2, 6-dansyl azide probed-based fluorescence assay relative to 6.9 uM of GYY4137; format: physicochemical; conditions: buffer, 500 µM
[25] = Induction of H2S release in 10% PBS:MeCN solution assessed as ratio of H2S level at 37 degC to H2S level at 22 degC at 0.5 mM incubated in dark condition measured at 96 hrs by 2, 6-dansyl azide probed-based fluorescence assay; format: physicochemical; conditions: buffer, 500 µM
[26] = Induction of H2S release in 10% PBS:MeCN solution at 0.5 mM incubated at 22 degC in dark condition measured at 48 hrs by 2, 6-dansyl azide probed-based fluorescence assay relative to control; format: physicochemical; conditions: buffer, 500 µM
[27] = Induction of H2S release in 10% PBS:MeCN solution at 0.5 mM incubated at 37 degC in dark condition measured at 48 hrs by 1 mM 2, 6-dansyl azide probed-based fluorescence assay relative to control; format: physicochemical; conditions: buffer, 500 µM
[28] = Induction of H2S release in 10% PBS:MeCN solution at 0.5 mM incubated at 22 degC in dark condition measured at 48 hrs by 2, 6-dansyl azide probed-based fluorescence assay relative to 12 uM of GYY4137; format: physicochemical; conditions: buffer, 500 µM
[29] = physchem; conditions: DMSO, pH 7.4
Description: Kinetic solubility of the compound in DMSO at pH 7.4 measured at 3 hrs by multiscreen filter paper-based UV absorbance analysis

[30] = physchem; conditions: DMSO, pH 7.4; remark: listed apart in the source
Description: Kinetic solubility of the compound in DMSO at pH 7.4 measured at 24 hrs by multiscreen filter paper-based UV absorbance analysis

Compound	Activity [1]	IC50 at 4 days [2] [µM]	IC50 [3] [µM]	selectivity ratio [4]	Activity [5] [µM]	selectivity ratio [6]	IC50 [7] [µM]	IC50 [8] [µM]	fold change (FC) [9]	%max [10] [%]	Ratio [12]	fold change (FC) [13]	selectivity ratio [15]	selectivity ratio [17]	IC50 [18] [µM]	%max [23] [%]	other results
CN1c2ccccc2OP1(=S)c1ccccc1 (stereo unspecified)	20.7 µM	207	72.7	2.8	24.4	2.8	69.4	–	–	–	–	–	–	–	–	–	–
Fc1ccc2c(c1)NP(=S)(c1ccc(Oc3ccccc3)cc1)O2 (stereo unspecified)	Not Active	65.6	13.6	1.7	5	1.7	38.1	–	–	–	–	–	–	–	–	–	–
C1COCCN1.S=P(S)(c1ccc(Oc2ccccc2)cc1)N1CCOCC1 (stereo unspecified)	–	656	195	2	–	2	326	95.2	1.2	1.68	3.3	0.9	2	2	163	–	IC50 [11]: 102 µM; Activity [14]: 5.47 µM; Papp at 16 h, 500 µM [16]: 0.013 ×10⁻⁶ cm/s; Activity [19]: 4.14 µM; Activity [20]: Non-toxic; %max [21]: 5.54%; Papp at 6 h, 500 µM [22]: 0.015 ×10⁻⁶ cm/s
COc1ccc(P(=S)(S)NCc2ccccc2)cc1.NCc1ccccc1 (stereo unspecified)	–	208	84.2	2.3	–	2.3	89.9	41.1	1.5	2.19	2.3	0.8	2.3	2.3	82.4	–	IC50 [11]: 31.9 µM; Activity [14]: 10.29 µM; Activity [19]: 5.55 µM; %max [21]: 5.07%
C1COCCN1.COc1ccc(P(=S)(S)OC(C)C)cc1 (stereo unspecified)	–	> 400	266	1.5	–	1.5	200	84.6	< 0.1	0.04	3	< 0.1	1.5	–	205	0.12	–
Cc1ccc2c(c1)OP(=S)(c1ccc(Oc3ccccc3)cc1)N2 (stereo unspecified)	59.9 µM	> 400	186	2	39.2	–	196	–	–	–	–	–	–	–	–	–	–
C1COCCN1.S=P(S)(N1CCOCC1)N1CCOCC1	–	683	221	2.6	–	2.6	267	381	–	–	–	–	2.6	2.6	331	–	fold change (FC) [24]: 110.4; Ratio [25]: 1.1; %max [26]: 67.2%; Activity [20]: Non-toxic; %max [27]: 76.2%; fold change (FC) [28]: 56
NCC1CCCCC1.S=P(S)(NCC1CCCCC1)NCC1CCCCC1	–	287	172	1	–	1	179	> 500	–	–	–	–	1	1	> 500	–	fold change (FC) [24]: 31.6; Ratio [25]: 2.7; %max [26]: 0.82%; %max [27]: 21.8%; fold change (FC) [28]: 6.8
CCNCCOP(=S)(S)c1ccc(OC)cc1 (stereo unspecified)	–	–	> 400	–	–	–	> 400	> 500	–	< 0.01	–	< 0.1	–	–	481	0.03	Papp at 16 h, 500 µM [16]: 0.0041 ×10⁻⁶ cm/s; solubility kinetic at 3 h [29]: > 290 µg/mL; Papp at 6 h, 500 µM [22]: 0.013 ×10⁻⁶ cm/s; solubility kinetic at 24 h [30]: > 290 µg/mL
COc1ccc(P(=S)(S)OCCCN)cc1 (stereo unspecified)	–	–	> 400	–	–	–	> 400	> 500	< 0.1	0.02	2.7	< 0.1	–	–	> 500	0.06	Papp at 16 h, 500 µM [16]: 0.0027 ×10⁻⁶ cm/s; Papp at 6 h, 500 µM [22]: 0.007 ×10⁻⁶ cm/s; solubility kinetic at 24 h [30]: > 280 µg/mL
COc1ccc(P2(=S)Nc3ccccc3O2)cc1 (stereo unspecified)	42.7 µM	94.4	37.1	2.5	48.3	2.5	38.1	–	–	–	–	–	–	–	–	–	–
NCc1ccccc1.S=P(S)(NCc1ccccc1)NCc1ccccc1	–	266	145	1.4	–	1.4	189	104	–	–	–	–	1.4	1.4	218	–	fold change (FC) [24]: 2.8; Ratio [25]: 0.8; %max [26]: 2.4%; %max [27]: 1.9%; fold change (FC) [28]: 2
C1COCCN1.CCCCOP(=S)(S)c1ccc(OC)cc1 (stereo unspecified)	–	177	92	1.1	–	1.1	–	77.6	< 0.1	0.04	3.2	< 0.1	1.1	1.1	193	0.12	IC50 [11]: 79.1 µM
C1COCCN1.COc1ccc(P(=S)(S)OC)cc1 (stereo unspecified)	–	–	450	–	–	–	430	216	< 0.1	0.06	2.5	< 0.1	–	–	446	0.15	IC50 [11]: > 200 µM; Papp at 16 h, 500 µM [16]: 0.0031 ×10⁻⁶ cm/s; Activity [20]: Non-toxic; Peff ([22]; pampa, 6 h, 500 µM): 0.003 ×10⁻⁷ cm/s
C1COCCN1.COP(=S)(S)c1ccc(Oc2ccccc2)cc1 (stereo unspecified)	–	347	181	1.9	–	1.9	165	87	< 0.1	0.06	2.7	< 0.1	1.9	1.9	202	0.16	IC50 [11]: 73.1 µM
COc1ccc(P2(=S)Oc3ccccc3N2C)cc1 (stereo unspecified)	10.1 µM	92.5	42.6	2.1	2.1	2.1	44.2	–	–	–	–	–	–	–	–	–	–
COc1ccc(P2(=S)Nc3cc(F)ccc3O2)cc1 (stereo unspecified)	33.3 µM	> 200	33.6	2.8	53.8	–	70.8	–	–	–	–	–	–	–	–	–	–
COc1ccc(P2(=S)Nc3cc(OC)ccc3O2)cc1 (stereo unspecified)	–	115	39.4	2.9	–	2.9	30.2	–	–	–	–	–	–	–	–	–	Activity ([1]; BLD = below limit of detection): BLD; Activity ([5]; BLD = below limit of detection): BLD
COc1ccc(P2(=S)Nc3ccc(C)cc3O2)cc1 (stereo unspecified)	48.2 µM	> 400	93.2	1.9	59	–	211	–	–	–	–	–	–	–	–	–	–
